This passage reports IC50 results from US9573913B2, “Cathepsin cysteine protease inhibitors” (Merck Sharp & Dohme Corp., priority 2013, dated 2017).

Structures are written as SMILES.

The target in one experiment is human cathepsin K (UniProt P43236). The experiment can be described thus: Cathepsin K Assay (hrbCat K). To be noted: Z-Leu-Arg-AMC substrate, pH 5.5, 15 min preincubation; read-out: hrbCat K (IP (nM)). It counts as biochemical. In a few lines: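 Human cathepsin K (0.4 nM) was preincubated 15 min at room temperature with compound in 50 mM MES pH 5.5, 2.5 mM EDTA, 2.5 mM DTT and 10% DMSO. Inhibition was fitted to a dose-response model.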

Another experiment addresses T1, human cathepsin F (Homo sapiens, UniProt Q9UBX1).
T1 sequence (Q9UBX1 271-484): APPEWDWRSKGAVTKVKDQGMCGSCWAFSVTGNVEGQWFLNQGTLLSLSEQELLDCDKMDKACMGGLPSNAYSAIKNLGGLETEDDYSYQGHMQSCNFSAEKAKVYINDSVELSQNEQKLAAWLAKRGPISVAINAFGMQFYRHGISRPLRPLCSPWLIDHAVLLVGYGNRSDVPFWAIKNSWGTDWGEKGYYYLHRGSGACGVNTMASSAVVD
The experiment can be described thus: Cathepsin F assay (hCat F). In kind it is biochemical. The following applies: Z-Phe-Arg-AMC substrate, pH 5.5, 15 min preincubation; read-out: hCat F (IP (nM)). In outline:
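AMC release from Z-Phe-Arg-AMC, added at 8 μM, was monitored fluorometrically (360/460 nm) for 20 min after 10 nM enzyme and compound had been preincubated 15 min at room temperature. Buffer: MES 50 mM pH 5.5, EDTA and DTT 2.5 mM each, 10% DMSO. Compound DMSO dilutions spanned 500–0.025 μM (3-fold). Dose-response fitting gave % inhibition.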

As to `N#CC1(NC(=O)[C@@H]2CCCC[C@H]2c2nc(-c3c(F)cccc3F)sc2-c2ccc(N3CCS(=O)(=O)CC3)cc2)CC1` [Example 94, (1R,2R)-N-(1-cyanocyclopropyl)-2-(2-(2,6-difluorophenyl)-5-(4-(1,1-dioxidothiomorpho-lino)phenyl)thiazol-4-yl)cyclohexane-carboxamide], the IC50 at human cathepsin K is 5.5 nM; at human cathepsin F, no less than 10000 nM.

Turning to `C[C@@H](C#N)NC(=O)[C@@H]1C[C@@H](F)CC[C@H]1c1nc(-c2ccc(F)cn2)sc1-c1ccc(N2CCS(=O)(=O)CC2)cc1` [Example 130, (1R,2R,5S)-N-((S)-1-cyanoethyl)-2-(5-(4-(1,1-dioxidothiomorpho-lino)phenyl)-2-(5-fluoropyridin-2-yl)thiazol-4-yl)-5-fluorocyclohexane-carboxamide], the IC50 was 0.9 nM on human cathepsin K and 1000 nM on human cathepsin F.

Consider `Cc1nc([C@@H]2CC[C@H](F)C[C@H]2C(=O)N[C@@H](C)C#N)c(-c2ccc(N3CCOCC3)cc2)s1` [Example 230, (1R,2R,5S)-N-((S)-1-cyanoethyl)-5-fluoro-2-(2-methyl-5-(4-morpholinophenyl)thiazol-4-yl)cyclohexane-carboxamide], for which the values for the IC50 on human cathepsin K and on human cathepsin F were 45.5 nM and 3330 nM, respectively.

In the case of `N#CC1(NC(=O)[C@@H]2C[C@@H](F)CC[C@H]2c2nc(-c3cccnc3)sc2-c2ccc(N3CCS(=O)(=O)CC3)cc2)CC1` [Example 46, (1R,2R,5S)-N-(1-cyanocyclopropyl)-2-(5-(4-(1,1-dioxidothiomorpho-lino)phenyl)-2-(pyridin-3-yl)thiazol-4-yl)-5-fluorocyclohexane-carboxamide], the IC50 at human cathepsin K is 1.1 nM; at human cathepsin F, 1980 nM.

On to `N#CC1(NC(=O)[C@@H]2C[C@@H](F)CC[C@H]2c2nc(C3(C(F)(F)F)CC3)sc2-c2ccc(N3CCS(=O)(=O)CC3)cc2)CC1` [Example 232, (1R,2R,5S)-N-(1-cyanocyclopropyl)-2-(5-(4-(1,1-dioxidothiomorpho-lino)phenyl)-2-(1-(trifluoromethyl)cyclopropyl)thiazol-4-yl)-5-fluorocyclohexane-carboxamide], for which the IC50 is 5 nM on human cathepsin K and no less than 10000 nM on human cathepsin F.

On to `CC(C)C(C#N)NC(=O)[C@@H]1CCCC[C@H]1c1nc(-c2ccc(F)cn2)sc1-c1ccc(N2CCS(=O)(=O)CC2)cc1` (single isomer, unassigned) [Example 187, (1R,2R)-N-((S or R)-1-cyano-2-methylpropyl)-2-(5-(4-(1,1-dioxidothiomorpho-lino)phenyl)-2-(5-fluoropyridin-2-yl)thiazol-4-yl)cyclohexane-carboxamide], for which the IC50 is 3820 nM at human cathepsin K and no less than 10000 nM at human cathepsin F.

As for `N#CC1(NC(=O)[C@@H]2CCCC[C@H]2c2nc(N3CCC4(CC3)CC4)sc2-c2ccc(N3CCS(=O)(=O)CC3)cc2)CC1` [Example 102, (1R,2R)-N-(1-cyanocyclopropyl)-2-(5-(4-(1,1-dioxidothiomorpho-lino)phenyl)-2-(6-azaspiro[2.5]octan-6-yl)thiazol-4-yl)cyclohexane-carboxamide], the figures for the IC50 on human cathepsin K and at human cathepsin F were 2.4 nM and 1000 nM, respectively.

With `N#CC1(NC(=O)[C@@H]2CCCC[C@H]2c2nc(Nc3ccccc3)sc2-c2ccc(N3CCS(=O)(=O)CC3)cc2)CC1` [Example 179, (1R,2R)-N-(1-cyanocyclopropyl)-2-(5-(4-(1,1-dioxidothiomorpho-lino)phenyl)-2-(phenylamino)thia-zol-4-yl)cyclohexane-carboxamide], the IC50 at human cathepsin K amounted to 34.6 nM; on human cathepsin F it was 3740 nM.

On to `C[C@@H](C#N)NC(=O)[C@@H]1C[C@@H](F)CC[C@H]1c1nc(C(C)(C)C)oc1-c1ccc(N2CCS(=O)(=O)CC2)cc1` [Example 169, (1R,2R,5S)-2-(2-(tert-butyl)-5-(4-(1,1-dioxidothiomorpho-lino)phenyl)oxazol-4-yl)-N-((S)-1-cyanoethyl)-5-fluorocyclohexane-carboxamide], for which the IC50 turned out to be 2.7 nM at human cathepsin K and 5660 nM at human cathepsin F.
